Values joined by “and” are separate entries in the source; they are usually repeats but may differ in a detail not shown here. Identical values can stand only once.
Columns and labels:
[1] = Fluorescence quantum yield with integrating sphere; format: physicochemical; details: excitation 625 nm, 15 min at RT
Experimental: Fluorescence quantum yields (0%) measurements were performed on FluoroLog-31IHR-320 (HORIBA-JobinYvon) with integrating sphere accessory.
The measurements were carried out using an excitation wavelength of 625 nm and using a 450W Xenon Light Source. Detection was performed on TBX-04 detector from 645 to 850 nm (excitation and emission slit were 1.8 nm).
The fluorescence quantum yield of DA364 solution was measured both in human serum SERONORM (human-based control serum), NycomedPhama, batch 1109514) and in Phosphate Buffer Saline (PBS).
Solutions of the NIR agent were prepared in PBS and in human serum with absorbance lower than 0.1. Fluorescence (0%) measurements were carried out after incubation of the NIR agent at Room Temperature (RT) for 15 min.

A431 tumor = assay: In vivo and ex vivo fluorescence imaging of tumor uptake (IVIS Spectrum); design: species or system mice
Experimental: (§1) A431 cells were collected and washed two times with PBS. Five million cells were resuspended in 0.1 mL of DMEM high glucose medium and subcutaneously injected in the right flank of all mice. Eleven days after A431 inoculation, U-87MG cells were collected and washed two times with PBS. Two million cells were resuspended in 0.1 mL of EMEM medium and subcutaneously injected in the left flank of same animals previously injected with A431 cells.
(§2) Three weeks after A431 tumor implantation five mice were administered with 1 nmol of DA364 for a total administration volume of 0.2 mL (inj. rate 1 mL/min). In vivo OI acquisitions have been carried out 5 min, 15 min, 30 min, 1 h, 2 h, 3 h, 4 h, 6 h, 24 h and 48 hours after intravenous administration of the fluorescent probe using the IVIS Spectrum optical imaging system (Perkin Elmer). During OI experiments animals were kept under 3-4% Sevofluorane gas anaesthesia (O2 97.0-96.0%). During anaesthesia animals body temperature has been stabilized at about 37° C. using a heated bed.
(§3) Following in vivo OI experiments, 48 hours after probes injection, animals were sacrificed. Tumors, liver, kidneys, heart and spleen were excised for ex vivo fluorescent signal measure on the whole excised tumor or organ.
(§4) Fluorescence intensity from U-87 MG and A431 tumors was measured in vivo together with the signal coming from the normal healthy tissues (background).
(§5) The fluorescent signal (expressed as Radiant Efficiency (RE): p/s/(μW/cm^2), where p is the photon count), was then measured on the excised ex vivo samples using the IVIS Spectrum optical imaging system (Perkin Elmer).

U-87MG tumor = assay: as above; design: species or system mice
Experimental: as §1, §2, §3, §4, §5

[2] = tested on: rat orthotopic prostate tumor model Mat Ly-Lu; assay: Fluorescence guided-surgery in rat prostate tumor model, visual classification validated by histology; format: in vivo, Copenhagen rats
Experimental: This example is aimed at assessing the sensitivity of the NIR RGD cyclic probe DA364 in the recognition of tumor masses using rat orthotopic prostate tumor model Mat Ly-Lu (a tumor with reduced expression of αvβ3 integrins, as illustrated below).
Intraoperative imaging was performed on a Zeiss system, a modified surgical microscope including appropriate filters for illumination and selection of signals emitted from the probe. Rat tumoral MatLyLu prostate cells were inoculated in the right ventral lobe of the prostate. Three-four days after inoculation animals were intravenously injected with a dose ranging from 5 to 20 nmol/rat of NIR fluorescent probe and imaged 24 hours after. Tumors have been then resected through fluorescent signal guide. Tissues surrounding the fluorescent area including tissues from the left prostate lobe was excised for histological comparison. All the samples were analysed through routine histological processing (Hematoxylin and eosin stain) and additional immune-labelling.
The experiment was performed on 10 Copenhagen rats (males) 11 weeks old, purchased from Harlan Laboratories Srl, S.Pietro al Natisone (UD), Italy. Rat prostate adenocarcinoma was induced in Copenhagen rats by orthotopic injection of the MatLylu tumor cells under isofluorane anesthesia. About 1 hour before tumor implantation, an analgesic (Rymadil) was administered subcutaneously (5 mg/kg) to rats. Then the lower abdomen was shaved and disinfected (Betadinen. A 12 mm incision of the abdominal wall along the linea Alba was performed 3 to 4 cm above the urinary orifice. The prostate was exposed after having pushed away the adipose tissue on each side of the animal.
A cell suspension (30 μL) containing 0.5×10^6 tumor cells was injected with a 27G needle into the right ventral lobe of the prostate. The muscular and cutaneous plan was sewed up with sterile non-resorbable thread (3-0 black silk, Distrex S.p.a.). The wound was painted with disinfectant solution Betadine®. The analgesic was also administered at least once after surgery (about 24 h after). All procedures involving the animals have been conducted according to national and international laws and policies for the Care and Use of Laboratory Animals (EEC Council Directive 86/609CEE; L.D. 116/92 and EEC Council Directive 2010/63/EU; L.D. 26/2014. Authorization n.149/2006-A issued Oct. 27, 2006 by the Italian Ministry of Health).
The tumor removal was performed using a dedicated surgical microscope (Axio Zoom v16, Carl Zeiss Beteiligungs GmbH, Jena, Germany). The microscope was equipped with a PLANAPO Z 0.5×/0.125 FWD 114 MM objective. During surgery an area of about 2.5×2.5 cm^2 was visualized. The surgical field was white-light illuminated by a cold light source (CL 9000 LED CAN (D)) when the fluorescence signal was not required, and by filtered light during the tumor removal (Illuminator: HXP 200C (D), filter set: 32 Cy 5.5 shift free (E)).
The day before surgery, corresponding to 3-4 days after tumor implantation, animals were administered with a dose of DA364 test agent ranging from 5 to 20 nmol/rat. Twenty-four hours after probes injection, animals were anaesthetized with isofluorane gas 0.5% (O2 99.5%), secured on the surgical table in the supine position and prostate tumor will be exposed.
After the removal of the prostatic capsule, the prostatic tumor was exposed to filtered light and fluorescence images were acquired to outline the primary tumor mass and the margins of the pathology (see FIG. 3, Panels A and D). The removal of the tumor mass was then carried out iteratively, by using fluorescence to guide the excision until absence of the fluorescent signal in the area surrounding tumor region (see FIG. 3, Panels B,E and C,F). Most of the fluorescent signal was confined in implantation area, i.e. the prostate right ventral lobe. […]

[3] = molecular target: Human Serum Albumin (HSA) (Homo sapiens, UniProt P02768); assay: In vitro binding assay towards human serum albumin (absorbance at 689 nm)
Sequence of Human Serum Albumin (HSA) (P02768 25-609): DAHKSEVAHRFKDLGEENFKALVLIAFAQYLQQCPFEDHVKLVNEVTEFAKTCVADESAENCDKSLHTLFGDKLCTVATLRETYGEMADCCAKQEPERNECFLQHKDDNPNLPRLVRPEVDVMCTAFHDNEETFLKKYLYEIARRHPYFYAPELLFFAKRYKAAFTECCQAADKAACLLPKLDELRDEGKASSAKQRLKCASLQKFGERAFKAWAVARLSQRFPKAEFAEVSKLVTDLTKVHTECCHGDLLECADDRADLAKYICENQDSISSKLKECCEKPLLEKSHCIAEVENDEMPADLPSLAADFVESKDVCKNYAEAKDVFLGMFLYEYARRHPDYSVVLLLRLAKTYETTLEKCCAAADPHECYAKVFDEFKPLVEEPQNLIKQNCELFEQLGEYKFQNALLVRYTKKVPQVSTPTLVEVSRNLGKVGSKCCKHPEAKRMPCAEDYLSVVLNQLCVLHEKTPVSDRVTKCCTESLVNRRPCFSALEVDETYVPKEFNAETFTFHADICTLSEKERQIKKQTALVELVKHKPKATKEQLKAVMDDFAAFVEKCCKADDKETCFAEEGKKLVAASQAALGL
Experimental: Final solutions, containing 0.99 mM of the NIR agent and different amount of HSA, were incubated 1 h at room temperature before measurements. The absorbance of each solution was measured against a reference solution of HSA at the same concentration.

[4] = ex vivo, 48 hours after 1 nmol i.v.
[5] = 5 to 20 nmol/rat i.v., surgery 24 h after, versus histology

Kd [3]: 34.9 µM
association constant with HSA (ka) ([3]; PBS, 1 h at room temperature): 28670 ± 1140 M⁻¹
SMILES: CC[N+]1=C(/C=C/C=C/C=C2/N(CCCCCC(=O)NC[C@@H]3C[C@@H]4CC[C@H]5C(=O)N[C@@H](CCCNC(=N)N)C(=O)NCC(=O)N[C@@H](CC(=O)O)C(=O)N[C@H]3C(=O)N45)c3ccc4c(S(=O)(=O)O)cc(S(=O)(=O)O)cc4c3C2(C)C)C(C)(C)c2c1ccc1c(S(=O)(=O)[O-])cc(S(=O)(=O)O)cc21 [DA364]
Φ% (fluorescence quantum yield) ([1]; PBS): 36.5% and 36.5 (SD 2.37) %
Φ% (fluorescence quantum yield) ([1]; SERONORM (human-based control serum)): 57.5% and 57.5 (SD 1.26) %
tumor signal ratio with respect to the background (A431 tumor; A431 tumor in vivo, 3 hours to 24 hours after injection): stable signal ratio
fluorescence intensity in A431 tumors relative to heart and spleen (background) (A431 tumor; [4]): about 10 times
fluorescence intensity in A431 tumors relative to liver and kidney (A431 tumor; [4]): comparable
Fluorescence Signal (Radiant Efficiency) (A431 tumor; excised A431 tumor ex vivo, 48 hours after 1 nmol i.v.): 3.47E+08 p/s/(μW/cm^2)
visualization of tumor under skin (FIG. 9) (A431 tumor; low-integrin expressing tumor A431, in vivo fluorescence imaging): clear visualization
tumor signal ratio with respect to the background (U-87MG tumor; U-87 MG tumor in vivo, 3 hours to 24 hours after injection): stable signal ratio
fluorescence signal in U-87MG tumor relative to A431 tumor (U-87MG tumor; [4]): about twice
Fluorescence Signal (Radiant Efficiency) (U-87MG tumor; excised U87-MG tumor ex vivo, 48 hours after 1 nmol i.v.): 6.78E+08 p/s/(μW/cm^2)
sensitivity of visual classification of tumor tissues [2, 5]: 87%
specificity of visual classification of tumor tissues [2, 5]: 83%
number of tissue samples, histology Negative ([2]; surgery class FLUORESCENT): 3
number of tissue samples, histology Positive ([2]; surgery class FLUORESCENT): 20
number of tissue samples, histology Negative ([2]; surgery class NON FLUORESCENT): 15
number of tissue samples, histology Positive ([2]; surgery class NON FLUORESCENT): 3

Source: patent US10682427B2, “Intra-operative imaging” (BRACCO IMAGING S.P.A., priority 2014, dated 2020)
